According to patent EP0227593A1, “Use of chelating agents” (THE HOSPITAL FOR SICK CHILDREN, priority 1985, dated 1987):

Columns and labels:
[1] = test system: PB leukemia cell colonies; assay: Surface marker analysis of leukemia cell colonies grown with deferoxamine (immunocytochemical assay); type: cell-based, human; parameters: key to Ia intensity of staining / B4 intensity of staining / OKM1 intensity of staining / MY-4 intensity of staining: strong (+++); moderate (++); weak (+); conditions: colonies from cultures containing 2.5 µM deferoxamine
Protocol: (§1) Cell Culture Procedure: 2 x 10⁵ T-depleted cells were incubated with 40 % RPMI-methylcellulose, 20 % PHA-LCM, 10 % FCS, irradiated feeder cells (10⁵/dish), 16.6 % RPMI in 35 mm Petri dishes. The culture dishes were placed into a specialized modular incubator chamber (Billups-Rosenberg, Del Mar, CA) in a humidified atmosphere of 5 % O₂, 5 % CO₂ and balanced nitrogen for 3-6 days. After 2 days of incubation, the culture dishes were carefully examined. Colonies were counted at day 4. A cluster of more than 20 cells was defined as a colony. Individual colonies were plucked from the culture plates and smeared on microscope slides for further evaluation, using Wright stain and non-specific esterase staining. For control, 2 x 10⁵ irradiated feeder cells were cultured in the same assay system in each experiment to exclude their potential for colony formation Immunocytochemical Method: The cell surface antigens of air dried smears were detected using monoclonal antibodies and intestinal alkaline phosphatase, as previously described. This assay was performed to detect surface antigens on patients' PB and BM smears and colonies plucked from cultures. The slides were counter- stained in hematoxylin for light microscopy and the presence of surface antigen was indicated as bright red granular cellular inclusions. Morphologic details were well preserved, and a very high degree of correlation between morphology and surface antigen expression was observed. The intensity of staining was defined as strong (+++), moderate (++) and weak (+). Immunofluorescence Method: The cell surface phenotype was determined by indirect cell-surface fluorescence: A fluorescein-conjugated goat anti-mouse IgG (FAb')₂ was used as second antibody. The labelling was performed at room temperature in the presence of 0.2 % sodium azide. The percentage of cells with surface fluorescence was determined by counting cells stained in three replicate wells using an inverted phase-fluorescent microscope. Monoclonal Antibodies: The following monoclonal antibodies were used in these studies: anti-OKIa (Ortho Diagnostic Systems Inc. Raritan, NJ) to detect HLA-D framework antigen, anti-MY-7, anti-Mol and anti-MY-4 (coulter Immunology) to identify myelomonocytic markers, anti-Ig. anti-BA1, anti-BA2, anti-B1, and anti-B4 (Becton-Dickinson) to recognize cells of the B-cell lineage, anti-J5 (Coulter Immunology) to recognize cells bearing common ALL (CALLA) antigen and anti-Leu-1 and anti-Leu-4 (Coulter Immunology) to recognize cells of the T-cell lineage.
DFO and Blast Cell Differentiation: Individual blast colonies from the culture plates containing DFO 2.5 µM were characterized (Table 2). Compared to colonies grown without exposure to DFO, a marked change in cell surface antigen expression was observed.
PB leukemia cell colonies were plucked at random from cultures containing 2.5 µM deferoxamine compared to cultures without deferoxamine using the immunocytochemical assay.

[2] = test system: peripheral blood blast cell numbers; assay: 20-day experimental treatment protocol in a leukemia patient: WBC and blast counts; type: in vivo, human
Protocol: With informed consent and following an approval by the Human Experimentation Committee of our institution, an experimental protocol was initiated: DFO, dissolved in sterile water was given by continuous infusion of 10 mg/kg/hour; cytosine arabinoside (Ara-C) dissolved in saline was given by i.v. push, 5 mg/kg/dose. When used consecutively, DFO was stopped 8-12 hours prior to cytosine arabinoside.
Deferoxamine (DFO) was given by continuous infusion 10 mg/kg/hr Cytosine-arabinoside (Ara-C) was given by i.v. push, 5 mg/kg/dose.

[3] = test system: peripheral blood blast cells; assay: Surface marker analysis on PB smears before and after 48 hours of deferoxamine treatment (immunocytochemical method); type: in vivo, human; parameters: key to Ia intensity of staining / OKM1 intensity of staining / MY-4 intensity of staining: strong (+++); moderate (++); weak (+); conditions: PB smears after 48 hours of deferoxamine treatment
Protocol: as §1
DFO and Blast Cell Differentiation: After 48 hours of continuous infusion of DFO as a single agent, striking changes in blast cell surface markers were detected immunocytochemically (Table 3). Prior to treatment, no blasts expressed OKM1 antigen, and only 8 % weakly expressed MY-4. After 48 hours, these two antigens were strongly detected in peripheral blood blast cells. Concomitantly with DFO therapy, there was a sharp decline from 37 % to 0 % of cells bearing B₄ antigen.
Immunologic surface markers were dermined before and after 48 hours of deferoxamine treatment on PB smears using the immunocytochemical method

[4] = Day 1, DFO continuous infusion 10 mg/kg/hr, 24 h
[5] = Day 3, after first 48 hours of DFO, Ara-C starts Day 3

## CC(=O)N(O)CCCCCNC(=O)CCC(=O)N(O)CCCCCNC(=O)CCC(=O)N(O)CCCCCN [DFO, desferioxamine methanesulfonate]
[1]
  B4 Positive: 30%
  B4 intensity of staining: +++
  CALLA Positive: 0%
  Ia Positive: 80%
  Ia intensity of staining: +++
  Leu-1 Positive: 0%
  Leu-4 Positive: 0%
  MY-4 Positive: 60%
  MY-4 intensity of staining: ++
  OKM1 Positive: > 90%
  OKM1 intensity of staining: +++
[2]; [4]
  Blasts: 4.22e+10 L⁻¹
  WBC: 6.25e+10 L⁻¹
[2]; [5]
  Blasts: 4.09e+10 L⁻¹
  WBC: 6.39e+10 L⁻¹
[3]
  B4 positive cells: 0%
  CALLA positive cells: 0%
  Ia intensity of staining: +++
  Ia positive cells: 80%
  Leu-1 positive cells: 0%
  Leu-4 positive cells: 0%
  MY-4 intensity of staining: +++
  MY-4 positive cells: 60%
  OKM1 intensity of staining: +++
  OKM1 positive cells: 40%
